From publication PMC9952338, “Chemical Constituents from Streblus taxoides Wood with Their Antibacterial and Antityrosinase Activities Plus in Silico Study” (Antibiotics, 2023)
Converted amounts (≈) assume the structure as drawn. “Also recorded” adds a separate entry of the source. Like-named read-outs stand apart in the source and are kept apart here.

Columns and labels:
[1] = system: B16-F1 melanoma cells; test: Melanin content; assay type: cell-based, murine; details: 50 µg/mL
Protocol: (§1) The murine B16-F1 melanoma cells (CLS-400122, CLS Cell Lines Service GmbH, Germany) were cultured in Dulbecco’s modified Eagle’s medium, which was supplemented with 10% fetal bovine serum in a humidified incubator at 37 C with 5% CO2. When cells reached 70–80% confluence cell viability, cellular tyrosinase activity and melanin content were measured. The B16-F1 cells were seeded at a density of 3 × 10^5 cells/well on 12-well plates and cultured for 12 h. Cells were treated with test samples and control (0.5% DMSO). After 48 h of incubation, cells were lysed with RIPA and centrifuged at 14,000 rpm for 20 min (4 °C) to separate the cell pellet and supernatant. The supernatant was collected and the protein content was determined by the Bradford method using bovine serum albumin as standard. The supernatant was incubated and 2 mg/mL L-Dopa was added to a 96-well plate at 25 °C for 1 h. After that, optical densities were measured at 492 nm. Then, tyrosinase inhibition was calculated, while the cell pellet was dissolved with 1 M NaOH and incubated at 55 °C for 1 h. Melanin concentration was calculated by comparing the absorbance at 475 nm using a standard curve of synthetic melanin.

[2] = system: Staphylococcus aureus (ATTC 25923); test: MIC and MBC by modified broth microdilution; assay type: cell-based; details: S. aureus; for MBC / MIC: Staphylococcus aureus
Protocol: (§2) Microorganisms that cause skin infection, such as Staphylococcus aureus (ATTC 25923), Staphylococcus epidermidis (TISTR 517), Cutibacterium acnes (DMST 14916) and methicillin-resistant Staphylococcus aureus (DMST20654), were selected for this study. The isolated compounds were determined for minimum inhibitory concentration (MIC) in a 96-well plate by modified broth microdilution method and minimum bactericidal concentration (MBC). Oxacillin was used as positive controls for S. aureus, S. epidermidis and C. acnes, while vancomycin was used for MRSA.

[3] = system: methicillin-resistant Staphylococcus aureus (DMST20654); test: MIC and MBC by modified broth microdilution; assay type: cell-based; details: MRSA; for MBC / MIC: Staphylococcus aureus
Protocol: as §2

[4] = system: Cutibacterium acnes (DMST 14916); test: MIC and MBC by modified broth microdilution; assay type: cell-based; details: C. acnes
Protocol: as §2

[5] = system: Staphylococcus epidermidis (TISTR 517); test: MIC and MBC by modified broth microdilution; assay type: cell-based; details: S. epidermidis; for MBC / MIC: Staphylococcus epidermidis, TISTR517
Protocol: as §2

[6] = system: MITF, tyrosinase, TRP1 and TRP2 in B16-F1 cells; test: Western blot of melanogenic protein expression; assay type: cell-based, murine; details: 25 and 50 µg/mL
From the text: The protein content of the supernatant was quantified by the Bradford method using bovine serum albumin as standard. Equal amounts of protein were separated by 40% acrylamide/Bissolution (InvitrogenThermoFisher Scientific, Waltham, MA, USA) and transferred onto nitrocellulose membranes (BIO-RAD Laboratories, Feldkirchen, Germany). The membranes were probed with antibodies against microphthalmia-associated transcription factor; MITF (ThermoFisher Scientific #MA5-16214, Waltham, MA, USA), tyrosinase (ThermoFisher Scientific #35-6000, Waltham, MA, USA), tyrosinase-related protein 1; TRP1 (ThermoFisher Scientific #OSR00085W, Waltham, MA, USA) and tyrosinase-related protein 2; TRP2 (ThermoFisher Scientific #PA5-36485, Waltham, MA, USA). The proteins were detected using an enhanced chemiluminescence kit (BIO-RAD Laboratories, Hercules, CA, USA). Quantitative analysis was performed using a digital imager (UPV UVP, VisionWork^T LS, Image Acquisition & Analysis Software). The method applied was modified from Western Blot analysis for UGT1A family by the co-author, Asst. Prof. Dr. Wandee Udomuksorn, Pharmacology Program, Division of Health and Applied Science, Faculty of Science, Prince of Songkla University, Thailand., Department of Clinical Pharmacology, Flinders Medical Center.

[7] = system: tyrosinase in B16-F1 melanoma cells; test: Intracellular antityrosinase activity; assay type: cell-based, murine; details: 50 µg/mL, 48 h
Protocol: as §1

[8] = biological target: tyrosinase enzyme; test: Enzymatic antityrosinase activity, Dopachrom method with L-DOPA; assay type: biochemical, mushroom; details: for IC50 Values: Experiment of Table 4, reference for the correlation, in µg/mL; for IC50 on tyrosinase inhibitory activity: L-DOPA substrate, pH 6.8, 25 °C
Protocol: The tyrosinase activity was measured by the Dopachrom method using L-DOPA as a substrate. Briefly, 140 μL phosphate buffer (pH 6.8), 20 μL sample solution, and 20 μL tyrosinase solution (203.3 unit/mL) were mixed at 25 °C for 10 min, after which 20 μL of 0.85 mM L-Dopa was added. The optical density (OD) was measured at 492 nm. After incubation at 25 °C for 20 min, the optical density was measured again.

[9] = system: tyrosinase; parameters: method as in PMID 27598113; details: cited from earlier work
[10] = listed as 3, 4, 3′, 5′-tetrahydroxybibenzyl

Row | MIC [2] [µg/mL] | MIC ([3]; read-out: MIC) [µg/mL] | MIC [4] [µg/mL] | MIC [5] [µg/mL] | IC50 Values [8] | IC50 on tyrosinase inhibitory activity [8] [µg/mL] | Structure (SMILES) | Melanin content [1] | Inhibitory effect (in words) [2] | MBC [2] [µg/mL] | Inhibitory effect (in words) [3] | MBC ([3]; read-out: MBC) [µg/mL] | MBC [4] [µg/mL] | Inhibitory effect (in words) [5] | MBC [5] [µg/mL] | Intracellular antityrosinase activity [7] | Melanogenic protein expression [6] | other results
1 | 16 (≈ 49 µM) | 16 (≈ 49 µM) | 128 (≈ 392 µM) | 16 (≈ 49 µM) | 109.64 | 109.64 ± 0.89 (≈ 336 µM) | CC(=CCc1c(O)cc(-c2cc3ccc(O)cc3o2)cc1O)CO [Compound 1, ω-Hydroxymoracin C] | could decrease the melanin content | stronger inhibitory effect | 32 (≈ 98.1 µM) | stronger inhibitory effect | > 256 | > 256 | stronger inhibitory effect | 32 (≈ 98.1 µM) | exhibited antityrosinase activity | – | Melanogenic protein expression ([6]; listed as ω-Hydroxymoracin C): downregulated the melanogenic protein expression; Melanogenic protein expression ([6]; listed as ω-hydroxymoracin C): decreasing microphthalmia-associated transcription factor (MITF), tyrosinase (TYR), tyrosinase-related protein 1 (TRP1) and tyrosinase-related protein 2 (TRP2)
2 | 256 (≈ 1060 µM) | 64 (≈ 264 µM) | > 256 | 64 (≈ 264 µM) | 47.34 | 47.34 ± 0.78 (≈ 195 µM) | Oc1cc(O)cc(-c2cc3ccc(O)cc3o2)c1 [Compound 2, moracin M] | could decrease the melanin content | weak inhibitory effect | > 256 | weak inhibitory effect | > 256 | > 256 | weak inhibitory effect | > 256 | exhibited antityrosinase activity | decreasing microphthalmia-associated transcription factor (MITF), tyrosinase (TYR), tyrosinase-related protein 1 (TRP1) and tyrosinase-related protein 2 (TRP2); also recorded: downregulated the melanogenic protein expression | –
3 | 32 (≈ 103 µM) | 32 (≈ 103 µM) | 128 (≈ 412 µM) | 128 (≈ 412 µM) | 128.67 | 128.67 ± 1.21 (≈ 415 µM) | CC(C)=CCc1c(O)cc(-c2cc3ccc(O)cc3o2)cc1O [Compound 3, moracin C] | could decrease the melanin content | stronger inhibitory effect | 64 (≈ 206 µM) | stronger inhibitory effect | 64 (≈ 206 µM) | > 256 | stronger inhibitory effect | > 256 | exhibited antityrosinase activity | decreasing microphthalmia-associated transcription factor (MITF), tyrosinase (TYR), tyrosinase-related protein 1 (TRP1) and tyrosinase-related protein 2 (TRP2); also recorded: downregulated the melanogenic protein expression | –
4 | 128 (≈ 520 µM) | 64 (≈ 260 µM) | > 256 | 128 (≈ 520 µM) | – | 35.65 ± 0.98 (≈ 145 µM) | Oc1cc(O)cc(CCc2ccc(O)c(O)c2)c1 [Compound 4, 3,4, 3′, 5′-tetrahydroxybibenzyl] | – | – | 256 (≈ 1040 µM) | – | 256 (≈ 1040 µM) | > 256 | – | > 256 | – | – | Melanin content [1, 10]: increased the melanin content; also recorded: increase melanin content; Melanogenic protein expression [6, 10]: increasing microphthalmia-associated transcription factor (MITF) and tyrosinase (TYR); also recorded: upregulating the melanogenic protein expression
5 | > 256 | 128 (≈ 524 µM) | > 256 | 64 (≈ 262 µM) | 149.73 | 149.73 ± 0.86 (≈ 613 µM) | Oc1cc(O)cc(/C=C/c2ccc(O)c(O)c2)c1 [Compound 5, piceatannol] | increased the melanin content; also recorded: increase melanin content | – | > 256 | – | > 256 | > 256 | – | 128 (≈ 524 µM) | – | increasing microphthalmia-associated transcription factor (MITF) and tyrosinase (TYR); also recorded: upregulating the melanogenic protein expression | –
6 | – | – | – | – | – | – | CN[C@H](CC(C)C)C(=O)N[C@H]1C(=O)N[C@@H](CC(N)=O)C(=O)N[C@H]2C(=O)N[C@H]3C(=O)N[C@H](C(=O)N[C@H](C(=O)O)c4cc(O)cc(O)c4-c4cc3ccc4O)[C@H](O)c3ccc(c(Cl)c3)Oc3cc2cc(c3O[C@@H]2O[C@H](CO)[C@@H](O)[C@H](O)[C@H]2O[C@H]2C[C@](C)(N)[C@H](O)[C@H](C)O2)Oc2ccc(cc2Cl)[C@H]1O [Van, Vancomycin, reference compound] | – | – | – | – | – | – | – | – | – | – | MBC [3]: 0.5 µg/mL (≈ 0.345 µM); MIC [3]: 0.125 µg/mL (≈ 0.0863 µM)
7 | – | – | – | – | – | – | CC1(C)C=Cc2c(O)cc(-c3cc4ccc(O)cc4o3)cc2O1 [moracin D] | – | – | – | – | – | – | – | – | – | – | Antityrosinase activity (in words) [9]: did not display antityrosinase activity

Row | Structure (SMILES) | MIC [2] [µg/mL] | MIC ([3]; read-out: MIC) [µg/mL] | MIC [4] [µg/mL] | MIC [5] [µg/mL] | IC50 Values [8] | IC50 on tyrosinase inhibitory activity [8] [µg/mL] | Melanin content [1] | Inhibitory effect (in words) [2] | MBC [2] [µg/mL] | Inhibitory effect (in words) [3] | MBC ([3]; read-out: MBC) [µg/mL] | MBC [4] [µg/mL] | Inhibitory effect (in words) [5] | MBC [5] [µg/mL] | Intracellular antityrosinase activity [7] | Melanogenic protein expression [6] | other results
8 | Cc1onc(-c2ccccc2)c1C(=O)N[C@@H]1C(=O)N2[C@@H]1SC(C)(C)[C@@H]2C(=O)O [Oxa, Oxacillin, reference compound] | 0.125 (≈ 0.311 µM) | – | 0.5 (≈ 1.25 µM) | 0.5 (≈ 1.25 µM) | – | – | – | – | 0.125 (≈ 0.311 µM) | – | – | 0.5 (≈ 1.25 µM) | – | 0.5 (≈ 1.25 µM) | – | – | –
